Patent publication US7772177B2, “BIR domain binding compounds” (Aegera Therapeutics, Inc., priority 2005, dated 2010)

Legend:
[1] = target: T1, GST-HIAP2 (cIAP-1) BIR 3 (Homo sapiens, UniProt Q13490); assay: Fluorescence polarization-based competition assay, cIAP-1 Bir3; type: binding
T1 construct: made in house; host or cells: E. coli DH5-alpha
Experimental: GST-HIAP2 (cIAP-1) BIR 3: HIAP2 coding sequence from amino acids 251-363 cloned into PGex4T3 via BamH1 and XhoI. The plasmid was transformed into E. coli DH5α for use in protein expression and purification.
(§1) A fluorescent peptide probe, Fmoc-Ala-Val-Pro-Phe-Tyr(t-Bu)-Leu-Pro-Gly(t-Bu)-Gly-OH was prepared using standard Fmoc chemistry on 2-chlorotrityl chloride resin (Int. J. Pept. Prot. Res. 38:555-561, 1991). Cleavage from the resin was performed using 20% acetic acid in dichloromethane (DCM), which left the side chain still blocked. The C-terminal protected carboxylic acid was coupled to 4′-(aminomethyl)fluorescein (Molecular Probes, A-1351; Eugene, Oreg.) using excess diisopropylcarbodiimide (DIC) in dimethylformamide (DMF) at room temperature and was purified by silica gel chromatography (10% methanol in DCM). The N-terminal Fmoc protecting group was removed using piperidine (20%) in DMF, and purified by silica gel chromatography (20% methanol in DCM, 0.5% HOAc). Finally, the t-butyl side chain protective groups were removed using 95% trifluoroacetic acid containing 2.5% water and 2.5% triisopropyl silane. […] Compound #174 was also used as a fluorescent probe in this assay.
(§2) For all assays, the fluorescence and fluorescence-polarization was evaluated using a Tecan Polarion instrument with the excitation filter set at 485 nm and the emission filter set at 535 nm. For each assay, the concentration of the target protein was first establish by titration of the selected protein in order to produce a linear dose-response signal when incubated alone in the presence of the fluorescent probe. Upon establishing these conditions, the compounds potency (IC50) and selectivity, was assessed in the presence of a fix defined-amount of target protein and fluorescent probe and a 10 point serial dilution of the selected compounds. For each IC50 curve, the assays were run as followed: 25 ul/well of diluted compound in 50 mM MES buffer pH 6.5 were added into a black 96 well plate then 25 ul/well of bovine serum albumin (BSA) at 0.5 mg/ml in 50 mM MES pH 6.5. Auto-fluorescence for each compound was first assessed by performing a reading of the compound/BSA solution alone. Then 25 ul of the fluorescein probe diluted into 50 mM MES containing 0.05 mg/ml BSA were added and a reading to detect quenching of fluorescein signal done. Finally 25 ul/well of the target or control protein (GST-BIRs) diluted at the appropriate concentration in 50 mM MES containing 0.05 mg/ml BSA were added and the fluorescence polarization evaluated.
(§3) For each assay the relative polarization-fluorescence units were plotted against the final concentrations of compound and the IC50 calculated using the Grad pad prism software and/or Cambridge soft. The ki value were derived from the calculated IC50 value as described above and according to the equation described in Nikolovska-Coleska, Z. (2004) Anal Biochem 332, 261-273.
(§4) Compounds exemplified in Table 6 were tested and found to have IC50s in the following ranges: A: >10 μM; B: <10 μM; C: <1 μM using the fluorescence polarization assay, as shown in Table 5. Each of the IC50s was calculated from Graph Pad.

[2] = target: T2, caspase-3 inhibited by linker BIR2-BIR3-RING of XIAP (Homo sapiens, UniProt P98170); assay: Caspase-3 linker-BIR2-BIR3-RING derepression assay; type: biochemical
T2 construct: made in house; host or cells: E. coli DH5-alpha (GST-XIAP); E. coli AD494 (His-caspase-3)
Experimental: In order to determine the relative activity of the selected compound against BIR2, an in vitro assay was used where caspase-3 was inhibited by linker-BIR2 or linker BIR2-BIR3-RING of XIAP. Briefly, 1.5 ul of the enzyme, 0.25 uM to 2 uM of GST-Xiap fusion protein (GST-linker BIR2, GST-linker BIR2BIR3RING) were co-incubated with serial dilutions of compound (80 uM-0.04 uM). Caspase 3 activity was measured by overlaying 25 ul of a 0.4 mM DEVD-AMC solution. Final reaction volume was 100 ul. All dilutions were performed in caspase buffer (50 mM Hepes pH 7.4, 100 mM NaCl, 10% sucrose, 1 mM EDTA, 10 mM DTT, 0.1% CHAPS (Stennicke, H. R., and Salvesen, G. S. (1997). Biochemical characteristics of caspase-3, -6, -7, and -8. J. Biol. Chem. 272, 25719-25723)).
The fluorescent AMC released from the caspase-3 hydrolysis of the substrate was measured in a TECAN spectrophotometer at 360 nm excitation and 444 nm emission, on a kinetic cycle of 30 minutes with readings taken every 2 minutes. Caspase activity was calculated as Vo of AMC fluorescence/sec. Caspase de-repression by our compounds were compared to caspase-3 alone and caspase 3 repressed by the presence of XIAP fusion protein.
(§5) Results: Compounds were also tested in the apoptosome assay and the linker-BIR2/caspase-3 inhibition assay and found to have IC50s in the following ranges: A: >10 μM; B: <10 μM; C: <1 μM, as shown in Table 7.

[3] = target: T3, GST-HIAP1(cIAP-2) BIR 3 (Homo sapiens, UniProt Q13489); assay: Fluorescence polarization-based competition assay, cIAP-2 Bir3; type: binding
T3 construct: made in house; host or cells: E. coli DH5-alpha
Experimental: GST-HIAP1(cIAP-2) BIR 3: HIAP1 coding sequence from amino acids 236-349, cloned into PGex4T3 via BamH1 and XhoI. The plasmid was transformed into E. coli DH5α for use in protein expression and purification.
as §1, §2, §3, §4

[4] = target: T4, GST-XIAP BIR3RING (Homo sapiens, UniProt P98170); assay: Fluorescence polarization-based competition assay, XIAP Bir3-RING; type: binding
T4 construct: made in house; host or cells: E. coli DH5-alpha
Experimental: GST-XIAP BIR3RING: XIAP coding sequence amino acids 246-497 cloned into PGEX2T1 via BamH1 and AVA I. The plasmid was transformed into E. coli DH5α for use in protein expression and purification.
as §1, §2, §3, §4

[5] = target: T5, XIAP Bir3-RING (GST-BIR 3RING) (Homo sapiens, UniProt P98170); assay: Caspase de-repression assay using cellular extracts (apoptosome), XIAP Bir3-RING; type: biochemical; settings: 293 cell S100 extract
T5 construct: made in house; host or cells: E. coli DH5-alpha
Experimental: (§6) 100 ug of 293 cell S100 extract and 0.25 uM-2 uM of GST-Xiap fusion protein (GST-BIR 3RING, GST-linker BIR2 BIR3RING) were co-incubated with serial dilutions of compound (0.02 uM-40 uM). Extracts were activated by adding 1 mM dATP, 0.1 mM ALLN, 133 ug Cytochrome C (final concentrations), and incubating at 37° C. for 25 minutes. All reactions and dilutions used S100 buffer (50 mM Pipes pH 7.0, 50 mM KCl, 0.5 mM EGTA pH 8.0, 2 mM MgCl2 supplemented with 1/1000 dilutions of 2 mg/ml Cytochalisin B, 2, mg/ml Chymotstatin, Leupeptin, Pepstatin, Antipain, 0.1M PMSF, 1M DTT). Final reaction volume was 30 ul. Caspase-3 activity was measured by overlaying 30 ul of a 0.4 mM DEVD-AMC solution. AMC cleavage was measured in a TECAN spectrophotometer at 360 nm excitation and 444 nm emission, on a kinetic cycle of 1 hour with readings taken every 5 minutes. Caspase activity was calculated as Vo of AMC fluorescence/sec. Caspase de-repression by our compounds were compared to fully activated extract and activated extract repressed by the presence of XIAP fusion protein.
as §5

[6] = target: T6, XIAP Bir2-Bir3-RING (GST-linker BIR2 BIR3RING) (Homo sapiens, UniProt P98170); assay: Caspase de-repression assay using cellular extracts (apoptosome), XIAP Bir2-Bir3-RING; type: biochemical; settings: 293 cell S100 extract
T6 construct: made in house; host or cells: E. coli DH5-alpha
Experimental: as §6, §5

T2 sequence (P98170 93-497): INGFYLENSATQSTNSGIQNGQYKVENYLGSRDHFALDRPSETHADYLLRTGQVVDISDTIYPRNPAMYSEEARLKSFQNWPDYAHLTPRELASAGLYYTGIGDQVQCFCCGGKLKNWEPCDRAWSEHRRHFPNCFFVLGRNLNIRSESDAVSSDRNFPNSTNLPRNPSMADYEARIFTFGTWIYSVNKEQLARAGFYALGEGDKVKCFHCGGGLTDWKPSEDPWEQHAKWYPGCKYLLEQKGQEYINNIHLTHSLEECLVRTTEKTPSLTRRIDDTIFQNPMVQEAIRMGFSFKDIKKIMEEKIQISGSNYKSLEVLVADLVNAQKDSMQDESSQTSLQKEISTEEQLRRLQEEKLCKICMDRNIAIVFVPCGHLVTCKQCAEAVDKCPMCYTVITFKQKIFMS
T6 sequence (P98170 93-497): as above
T3 sequence (Q13489 236-349): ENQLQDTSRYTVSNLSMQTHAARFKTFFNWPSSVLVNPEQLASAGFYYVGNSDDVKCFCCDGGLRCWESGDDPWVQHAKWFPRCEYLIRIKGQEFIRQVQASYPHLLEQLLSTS
T5 sequence (P98170 246-497): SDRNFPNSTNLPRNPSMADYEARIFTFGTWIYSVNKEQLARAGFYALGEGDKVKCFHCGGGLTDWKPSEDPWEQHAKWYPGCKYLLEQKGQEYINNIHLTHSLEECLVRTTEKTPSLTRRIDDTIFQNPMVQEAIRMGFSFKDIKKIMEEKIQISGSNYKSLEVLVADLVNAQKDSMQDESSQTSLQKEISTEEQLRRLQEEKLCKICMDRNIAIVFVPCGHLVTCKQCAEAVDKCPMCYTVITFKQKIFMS
T4 sequence (P98170 246-497): as above
T1 sequence (Q13490 251-363): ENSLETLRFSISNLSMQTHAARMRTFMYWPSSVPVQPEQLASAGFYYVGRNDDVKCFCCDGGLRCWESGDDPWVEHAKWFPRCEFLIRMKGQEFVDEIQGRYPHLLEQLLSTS

Structure (SMILES)	IC50 [1] [nM]	IC50 [2] [nM]	IC50 [3] [nM]	IC50 [4] [nM]	IC50 [5] [nM]	IC50 [6] [nM]
CN[C@@H](C)C(=O)N[C@H](C(=O)N1CCC[C@H]1CN(CCc1ccccc1)C(=O)CN)C(C)(C)C [Compound 32]	< 1000	> 10000	< 1000	< 1000	< 1000	
CC(=O)N(CCc1ccccc1)C[C@@H]1CCCN1C(=O)[C@@H](NC(=O)[C@H](C)N)C(C)C [Compound 19]	< 1000	> 10000	< 1000	< 1000	< 1000	> 10000
CCCC(=O)N(CCc1ccccc1)C[C@@H]1CCCN1C(=O)[C@@H](NC(=O)[C@H](C)N)C(C)C [Compound 22]	< 1000	> 10000	< 1000	< 1000	< 1000	> 10000
CC(C)[C@H](NC(=O)[C@H](C)N)C(=O)N1CCC[C@H]1CN(CCc1ccccc1)C(=O)C(F)(F)F [Compound 20]	< 1000	> 10000	< 1000	< 1000	< 1000	> 10000
CC(C)[C@H](NC(=O)[C@H](C)N)C(=O)N1CCC[C@H]1CN(CCc1ccccc1)C(=O)OCc1ccccc1 [Compound 15]	< 1000	> 10000	< 1000	< 1000	< 10000	> 10000
CC[C@H](N)C(=O)N[C@H](C(=O)N1CCC[C@H]1CN(C(C)=O)[C@@H]1CCCc2ccccc21)C(C)C [Compound 9]	> 10000	> 10000	> 10000	< 10000	< 1000	> 10000
CC[C@H](N)C(=O)N[C@H](C(=O)N1CCC[C@H]1CN(CCc1ccccc1)C(C)=O)C(C)C [Compound 5]	< 1000	< 10000	< 1000	< 10000	< 1000	> 10000
CC(C)[C@H](NC(=O)[C@H](C)N)C(=O)N1CCC[C@H]1CN(CCc1ccccc1)C(=O)COc1ccccc1 [Compound 28]	< 1000	> 10000	< 1000	< 1000	< 1000	
CC(C)[C@H](NC(=O)[C@H](C)N)C(=O)N1CCC[C@H]1CN(CCc1ccccc1)S(C)(=O)=O [Compound 17]	< 1000	> 10000	< 1000	< 10000	< 1000	> 10000
CN[C@@H](C)C(=O)N[C@H](C(=O)N1CCC[C@H]1CN(CCc1ccccc1)C(=O)CCN)C(C)(C)C [Compound 33]	< 1000	> 10000	< 1000	< 1000	< 1000	
